Laboratory results reported in US20220242846A1, “ISOINDOLINONE COMPOUNDS” (Monte Rosa Therapeutics AG, priority 2019, published 2022).
Where two headings read alike, the source gives them in different places.

Tests used:
GSPT1 = GSPT1 (Homo sapiens, UniProt P15170+Q96SW2); assay: Immunofluorescence assay for GSPT1 degradation in CAL-51 cells; assay type: cell-based; set-up: CAL-51 cells were purchased from DSMZ (cat. Number ACC302); endogenous in cells; host or cells: CAL-51 (DSMZ ACC302); conditions: compound treatment 6 hours
Sequence of GSPT1 (P15170 whole entry): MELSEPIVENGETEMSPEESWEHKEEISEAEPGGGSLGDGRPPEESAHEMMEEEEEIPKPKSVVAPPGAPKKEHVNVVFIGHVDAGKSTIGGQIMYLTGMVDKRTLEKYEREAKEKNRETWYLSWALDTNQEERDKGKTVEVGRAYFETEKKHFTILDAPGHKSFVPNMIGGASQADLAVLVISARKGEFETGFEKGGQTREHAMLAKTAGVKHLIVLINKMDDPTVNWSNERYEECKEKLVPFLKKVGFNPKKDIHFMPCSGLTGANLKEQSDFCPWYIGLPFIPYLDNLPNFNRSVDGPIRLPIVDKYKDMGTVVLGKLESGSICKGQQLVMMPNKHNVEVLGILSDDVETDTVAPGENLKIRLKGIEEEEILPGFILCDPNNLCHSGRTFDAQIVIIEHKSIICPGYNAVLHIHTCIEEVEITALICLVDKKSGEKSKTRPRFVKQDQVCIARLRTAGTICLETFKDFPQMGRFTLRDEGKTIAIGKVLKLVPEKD
Sequence of GSPT1 (Q96SW2 whole entry): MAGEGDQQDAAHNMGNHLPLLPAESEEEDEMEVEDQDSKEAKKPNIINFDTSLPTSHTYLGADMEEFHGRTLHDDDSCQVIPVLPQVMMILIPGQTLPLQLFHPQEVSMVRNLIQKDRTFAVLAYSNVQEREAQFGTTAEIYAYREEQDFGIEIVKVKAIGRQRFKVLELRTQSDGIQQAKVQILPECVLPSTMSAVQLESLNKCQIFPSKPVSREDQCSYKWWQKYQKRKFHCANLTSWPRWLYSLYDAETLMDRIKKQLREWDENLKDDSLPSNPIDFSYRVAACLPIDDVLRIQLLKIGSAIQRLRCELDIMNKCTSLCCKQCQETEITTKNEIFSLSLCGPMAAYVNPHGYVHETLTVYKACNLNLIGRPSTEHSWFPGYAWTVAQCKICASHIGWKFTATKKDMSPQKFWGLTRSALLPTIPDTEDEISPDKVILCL
Sequence of GSPT1 (Q16531 2-1140 partner limits assumed): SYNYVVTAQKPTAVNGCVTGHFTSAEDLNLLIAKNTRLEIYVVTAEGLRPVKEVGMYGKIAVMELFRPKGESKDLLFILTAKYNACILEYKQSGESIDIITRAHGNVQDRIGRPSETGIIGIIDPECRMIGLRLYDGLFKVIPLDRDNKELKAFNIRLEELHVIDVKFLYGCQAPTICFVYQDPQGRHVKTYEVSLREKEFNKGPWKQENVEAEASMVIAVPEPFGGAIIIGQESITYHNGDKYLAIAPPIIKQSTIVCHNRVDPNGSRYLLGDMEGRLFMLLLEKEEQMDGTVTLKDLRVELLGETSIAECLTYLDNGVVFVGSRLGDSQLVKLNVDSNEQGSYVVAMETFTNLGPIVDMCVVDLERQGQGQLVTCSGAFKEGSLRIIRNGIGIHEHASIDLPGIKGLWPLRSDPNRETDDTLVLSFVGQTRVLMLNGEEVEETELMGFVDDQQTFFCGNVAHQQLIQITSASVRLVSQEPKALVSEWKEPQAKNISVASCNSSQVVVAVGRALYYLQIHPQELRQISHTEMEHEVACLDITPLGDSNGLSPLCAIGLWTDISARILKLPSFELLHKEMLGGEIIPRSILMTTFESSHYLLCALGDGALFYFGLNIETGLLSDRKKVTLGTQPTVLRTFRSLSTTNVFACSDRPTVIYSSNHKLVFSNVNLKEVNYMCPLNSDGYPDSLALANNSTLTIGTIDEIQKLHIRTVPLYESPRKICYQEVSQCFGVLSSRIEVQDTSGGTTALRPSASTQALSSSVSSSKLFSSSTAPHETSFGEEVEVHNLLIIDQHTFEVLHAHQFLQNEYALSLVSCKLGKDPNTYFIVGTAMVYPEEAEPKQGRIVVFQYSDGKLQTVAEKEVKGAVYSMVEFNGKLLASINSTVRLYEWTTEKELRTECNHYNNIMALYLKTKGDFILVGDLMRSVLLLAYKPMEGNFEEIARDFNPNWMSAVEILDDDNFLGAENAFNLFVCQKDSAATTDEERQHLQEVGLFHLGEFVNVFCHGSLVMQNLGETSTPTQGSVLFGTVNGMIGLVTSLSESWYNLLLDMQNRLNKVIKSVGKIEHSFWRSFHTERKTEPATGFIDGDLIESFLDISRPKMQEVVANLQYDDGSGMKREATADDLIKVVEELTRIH
Summary of the method: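 CAL-51 cells on fibronectin-coated plates treated 6 h with compound (30 μM to 0.1 nM); fixed, stained with anti-GSPT1/Alexa-488, phalloidin and DAPI, imaged by high-content microscopy. Mean GSPT1 intensity per cell normalized to controls; DC50 by non-linear regression.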

[1] = system: Human mammary epithelial cells (HMEC) engineered to express c-myc tagged with EGFP; assay: 3D spheroid assay, myc-HMEC (CellTiterGlo3D viability); assay type: cell-based
Protocol: (§1) 3D Spheroid Experiments—HMEC
(§2) Human mammary epithelial cells (HMEC) were engineered to express either c-myc tagged with EGFP or EGFP alone (non myc) (analogous but distinct from Kessler J D et al, Science. 2012 Jan. 20; 335(6066):348-53. doi: 10.1126/science.1212728; Hsu T Y et al, Nature. 2015 Sep. 17; 525(7569):384-8. doi: 10.1038/nature14985). The engineered cells were seeded at 1000 (myc) or 4000 (non myc) cells/well in a 384 ultra-low attachment plate in a total volume of 40 µL, HMEC cell culture media (DMEM/F12+10% HI-FBS+15 mM HEPES+0.5 ug/ml Hydrocortisone+10 ug/ml Insulin+20 ng/ml EGF). Plates were spun at 1200 rpm for 5 minutes at room temperature to ensure that cells have gathered in the middle of the well and incubated at 37° C. for 48 hrs before firing with compounds. On Day 2 (48 h post seeding) cells were imaged (brightfield and EGFP fluorescence) using the Celigo imaging cytometer prior to firing compounds. For primary screens, compounds were added at three concentrations (1.25, 10 and 30 uM) in a volume of 120 nL using the ECHO acoustic dispenser and spun at 2000 rpm for 2 minutes at room temperature before incubating at 37° C. for 5 days. […] On Day 7, prior to measuring cell viability using CellTiterGlo3D, cells were imaged (brightfield and EGFP fluorescence) on the Celigo imaging cytometer. The CellTiterGlo3D reagent is added at 30uL/well and incubated at room temperature for 30mins After 30mins of incubation, luminescence readings were recorded using the Perkin Elmer EnVision reader.

[2] = system: Human mammary epithelial cells (HMEC) engineered to express EGFP alone (non myc); assay: 3D spheroid assay, non myc-HMEC (CellTiterGlo3D viability); assay type: cell-based; conditions: 120 h, 3D spheroids, 5 days with compound, read-out: Code: EC50 value in the non myc-HMEC assay
Protocol: as §1, §2

[3] = target: T1, Full length wild-type cereblon CRBN (Homo sapiens, UniProt Q96SW2); assay: Fluorescence polarization (FP) assay indicating cereblon binding; conditions: CRBN 80.0 nM, fluorescent probe 5 nM, FP measured after 12 hours; read-out: rFP IC50
T1 construct: Full length wild-type cereblon CRBN (80.0 nM, 10 μL) was incubated in assay buffer
T1 sequence (Q96SW2 whole entry): as the sequence (Q96SW2 whole entry) above
Summary of the method: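 Full-length wild-type human CRBN (80.0 nM) preincubated 30 min at room temperature with compound (12-point curve, 300-0.937 or 3000-9.3 nM) in HEPES pH 8.0, NaCl, TCEP, Tween 20. Thalidomide-based Cy5-type probe then added at 5 nM final; FP read after 12 h (ex 590, em 675 nm), normalized to DMSO, IC50 derived.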

[4] = read-out: Code: activity for GSPT1 degradation (DC50)
[5] = Homo sapiens, HMEC, 120 h, 3D spheroids, 5 days with compound, read-out: Code: EC50 value in the myc-HMEC assay
[6] = myc-HMEC 3D spheroids (compounds with code D and E), 5 days, read-out: EC50

CC(C)(C)c1ccc(NC(=O)NCc2ccc3c(c2)C(=O)N(C2CCC(=O)NC2=O)C3)cc1 (stereo not drawn) [Compound 56]
DC50 (GSPT1; [4]): ≤ 100 nM
EC50 [1, 5]: ≤ 400 nM
EC50 [1, 6]: 228 nM
EC50 [2]: > 10 µM
IC50 [3]: 434 nM

CC(C)c1ccc(NC(=O)NCc2ccc3c(c2)C(=O)N(C2CCC(=O)NC2=O)C3)cc1 (stereo not drawn) [Compound 57]
DC50 (GSPT1; [4]): > 300 nM
EC50 [1, 5]: > 2000 nM
EC50 [2]: > 10 µM
IC50 [3]: 373 nM

O=C1CCC(N2Cc3ccc(CNC(=O)NCC4CCCCC4)cc3C2=O)C(=O)N1 (stereo not drawn) [Compound 58]
DC50 (GSPT1; [4]): > 300 nM
EC50 [1, 5]: > 2000 nM
EC50 [2]: > 10 µM
IC50 [3]: 540 nM

COc1ccc(NC(=O)NCc2ccc3c(c2)C(=O)N(C2CCC(=O)NC2=O)C3)cc1Cl (stereo not drawn) [Compound 59]
DC50 (GSPT1; [4]): 100 to 300 nM
EC50 [1, 5]: 400 to 2000 nM
EC50 [1, 6]: 589 nM
EC50 [2]: > 10 µM
IC50 [3]: 373 nM

Cc1cc(NC(=O)NCc2ccc3c(c2)C(=O)N(C2CCC(=O)NC2=O)C3)ccc1Cl (stereo not drawn) [Compound 61]
DC50 (GSPT1; [4]): ≤ 100 nM
EC50 [1, 5]: ≤ 400 nM
EC50 [1, 6]: 92 nM
EC50 [2]: > 10 µM
IC50 [3]: 381 nM

Cc1ccc(F)cc1NC(=O)NCc1ccc2c(c1)C(=O)N(C1CCC(=O)NC1=O)C2 (stereo not drawn) [Compound 62]
DC50 (GSPT1; [4]): > 300 nM
EC50 [1, 5]: > 2000 nM
EC50 [2]: > 10 µM
IC50 [3]: 441 nM

Cc1cccc(CNC(=O)NCc2ccc3c(c2)C(=O)N(C2CCC(=O)NC2=O)C3)c1 (stereo not drawn) [Compound 63]
DC50 (GSPT1; [4]): > 300 nM
EC50 [1, 5]: > 2000 nM
EC50 [2]: > 10 µM
IC50 [3]: 492 nM

O=C1CCC(N2Cc3ccc(CNC(=O)NCCc4ccc(Cl)cc4)cc3C2=O)C(=O)N1 (stereo not drawn) [Compound 64]
DC50 (GSPT1; [4]): > 300 nM
EC50 [1, 5]: > 2000 nM
EC50 [2]: > 10 µM
IC50 [3]: 400 nM

O=C1CCC(N2Cc3ccc(CNC(=O)NCc4ccc(C(F)(F)F)cc4)cc3C2=O)C(=O)N1 (stereo not drawn) [Compound 65]
DC50 (GSPT1; [4]): > 300 nM
EC50 [1, 5]: > 2000 nM
EC50 [2]: > 10 µM
IC50 [3]: 637 nM

O=C1CCC(N2Cc3ccc(CNC(=O)Nc4ccccc4-c4ccccc4)cc3C2=O)C(=O)N1 (stereo not drawn) [Compound 66]
DC50 (GSPT1; [4]): > 300 nM
EC50 [1, 5]: > 2000 nM
EC50 [2]: > 10 µM
IC50 [3]: 449 nM

Cc1ccc(F)c(NC(=O)NCc2ccc3c(c2)C(=O)N(C2CCC(=O)NC2=O)C3)c1 (stereo not drawn) [Compound 67]
DC50 (GSPT1; [4]): > 300 nM
EC50 [1, 5]: > 2000 nM
EC50 [2]: > 10 µM
IC50 [3]: 284 nM

Cc1ccc(NC(=O)NCc2ccc3c(c2)C(=O)N(C2CCC(=O)NC2=O)C3)cc1C (stereo not drawn) [Compound 68]
DC50 (GSPT1; GSPT1 degradation, read-out: DC50): 200 nM
DC50 (GSPT1; [4]): 100 to 300 nM
EC50 [1, 5]: 400 to 2000 nM
EC50 [1, 6]: 458 nM
EC50 [2]: > 10 µM
IC50 [3]: 290 nM

O=C1CCC(N2Cc3ccc(CNC(=O)Nc4cc(F)ccc4F)cc3C2=O)C(=O)N1 (stereo not drawn) [Compound 69]
DC50 (GSPT1; [4]): > 300 nM
EC50 [1, 5]: > 2000 nM
EC50 [2]: > 10 µM
IC50 [3]: 381 nM

O=C1CCC(N2Cc3ccc(CNC(=O)NCCCc4ccccc4)cc3C2=O)C(=O)N1 (stereo not drawn) [Compound 70]
DC50 (GSPT1; [4]): > 300 nM
EC50 [1, 5]: > 2000 nM
EC50 [2]: > 10 µM
IC50 [3]: 253 nM

O=C1CCC(N2Cc3ccc(CNC(=O)Nc4ccc(-c5ccccc5)cc4)cc3C2=O)C(=O)N1 (stereo not drawn) [Compound 71]
DC50 (GSPT1; [4]): ≤ 100 nM
EC50 [1, 5]: ≤ 400 nM
EC50 [1, 6]: 39 nM
EC50 [2]: > 10 µM
IC50 [3]: 333 nM

COCCNC(=O)NCc1ccc2c(c1)C(=O)N(C1CCC(=O)NC1=O)C2 (stereo not drawn) [Compound 72]
DC50 (GSPT1; [4]): > 300 nM
EC50 [1, 5]: > 2000 nM
EC50 [2]: > 10 µM
IC50 [3]: 322 nM

N#Cc1cccc(NC(=O)NCc2ccc3c(c2)C(=O)N(C2CCC(=O)NC2=O)C3)c1 (stereo not drawn) [Compound 73]
DC50 (GSPT1; [4]): > 300 nM
EC50 [1, 5]: > 2000 nM
EC50 [2]: > 10 µM
IC50 [3]: 211 nM

N#Cc1ccc(NC(=O)NCc2ccc3c(c2)C(=O)N(C2CCC(=O)NC2=O)C3)cc1 (stereo not drawn) [Compound 74]
DC50 (GSPT1; [4]): > 300 nM
EC50 [1, 5]: > 2000 nM
EC50 [2]: > 10 µM
IC50 [3]: 196 nM
